Experimental data from patent US6667173B2, “Nucleic acids encoding platelet derived growth factor-alpha receptors” (The Schepens Eye Research Institute, priority 2000, dated 2003).

What was measured:
Erk = assay: PDGF-dependent activation of Erk in NIH 3T3 cells expressing mutant receptors (anti-phospho-Erk western blot); assay type: cell-based, mouse; details: 50 ng/ml PDGF-AA, 5 minutes
Procedure: Cells were stimulated as described in Example 2 and 20 μg of total cell lysate was subjected to western blotting analysis using anti-phospho-Erk or anti-Ras GTP-activating protein antibody as an internal control for the amount of protein. The phospho-extracellular signal related kinase (Erk) rabbit polyclonal antibody was purchased from New England Biolabs (Beverly, Mass.) and used at a dilution of 1:1000.

human αPDGFR = assay: Tyrosine phosphorylation of the introduced mutant αPDGFR (292 immunoprecipitation from NIH 3T3 cells); assay type: cell-based, mouse; details: 292 antibody IP, RIPA lysis; 50 ng/ml PDGF-AA, 5 minutes
Text: To characterize the kinase activity of the point mutants, these were immunoprecipitated using the 292 monoclonal antibody, which selectively recognizes an extracellular epitope of the introduced receptor and recognizes all of the mutants used in this study. While PDGF-stimulation is expected to dimerize mutant and wild type receptors, lysing cells in RIPA buffer breaks receptor dimers. Kelly, J. D. et al. (1991) J. Biol. Chem. 266:8987. Consequently, 292 immunoprecipitates are not expected to contain co-immunoprecipitating WT receptor. NIH 3T3 cells expressing the empty vector or receptor mutants were left resting, or stimulated with 50 ng/ml of PDGF-AA for 5 minutes, the cells were lysed in RIPA buffer and the resulting samples were subjected to anti-phosphotyrosine and anti-αPDGFR western blot analysis. In this series of experiments, we included the previously described Fα cell line, which is an NIH 3T3-like cell line that express the introduced human αPDGFR. Andrews, A. et al (1999) Invest. Ophthalmol. Vis. Sci. 40:2683. This cell line was included as a positive control, since the WT receptor in NIH 3T3 cells is mouse, and not recognized by the 292 antibody. As expected, the αPDGFR was immunoprecipitated from the Fα cells, but not the NIH 3T3 cells expressing the empty vector, and PDGF stimulation increased the phosphotyrosine content of the receptor (FIG. 3A). […]

GST-PLCγ = assay: In vitro kinase assay of immunoprecipitated mutant αPDGFRs with exogenous substrate; assay type: biochemical; details: 292 immunoprecipitates, [32P]-γ ATP, 30° C., 5 min
Procedure: Mutant αPDGFRs were selectively immunoprecipitated with the 292 antibody, and samples representing 2×10^5 cells from 292 antibodies were subjected to an in vitro kinase assay. Immunoprecipitates were preincubated with 2 μg of GST protein for 10 min at 0° C., then 2 μg of Glutathione S-transferase fusion phospholipase C-gamma (GST-PLCγ, an exogenous substrate, 10 μCi of γ-[^32P] ATP (DuPont NEN Research Products, Boston, Mass.), and universal kinase buffer (UKB; 20 mM Pipes, pH 7.0, 10 mM MnCl2, 20 μg/ml aprotinin) were added. The samples were incubated at 30° C. for 5 min. The proteins were separated by 7.5% sodium dodecyl sulfate-polyacrylamide gel electrophoresis (SDS-PAGE), the gel was dried, and the radiolabeled protein was detected by autoradiography.

NIH 3T3 cells = assay: [3H]-thymidine incorporation (entry into S phase) in NIH 3T3 cells expressing mutant receptors; assay type: cell-based, mouse; details: 10% FBS, 22 hours
Procedure: NIH 3T3 cells expressing either empty vector (EMP) or one of the αPDGFR mutants were trypsinized, resuspended in DMEM with 10% FBS, and plated at a density of 5×10^5 cells/well in 24-well tissue culture plates and cultured overnight. The cells were rinsed twice with phosphate buffered saline (PBS), and serum starved by incubation in 0.5 ml of DMEM with 0.1% FBS and 0.4 mg/ml of bovine serum albumin (BSA; Sigma) for 48 hours. The cells were then exposed to 50 ng/ml of PDGF-AA, 10% Fetal bovine serum (FBS) (v/v), or buffer for 22 hours. The cells were then pulsed for 4 hours in DMEM with 10% FBS containing 0.8 μCi/ml of [^3H]-thymidine (DuPont NEN Research Products). Finally, the cells were washed twice with PBS, and once with 5% trichloro acetic acid, and lysed in 250 μl of 0.25 N NaOH. The lysates were transferred into scintillation tubes containing 50 μl of 6 N HCl, and then 3 ml of scintillation fluid (ICN) was added. The incorporated radioactivity of [^3H]-thymidine uptake was quantitated in a scintillation counter (Packard, Meriden Conn.). The data were expressed as fold induction, which was calculated by dividing stimulated samples by the buffer control. Each condition was assayed triplicate, and the mean±standard deviation (SD) was obtained.

human αPDGFR, sequence (P16234 24-589 limits assumed): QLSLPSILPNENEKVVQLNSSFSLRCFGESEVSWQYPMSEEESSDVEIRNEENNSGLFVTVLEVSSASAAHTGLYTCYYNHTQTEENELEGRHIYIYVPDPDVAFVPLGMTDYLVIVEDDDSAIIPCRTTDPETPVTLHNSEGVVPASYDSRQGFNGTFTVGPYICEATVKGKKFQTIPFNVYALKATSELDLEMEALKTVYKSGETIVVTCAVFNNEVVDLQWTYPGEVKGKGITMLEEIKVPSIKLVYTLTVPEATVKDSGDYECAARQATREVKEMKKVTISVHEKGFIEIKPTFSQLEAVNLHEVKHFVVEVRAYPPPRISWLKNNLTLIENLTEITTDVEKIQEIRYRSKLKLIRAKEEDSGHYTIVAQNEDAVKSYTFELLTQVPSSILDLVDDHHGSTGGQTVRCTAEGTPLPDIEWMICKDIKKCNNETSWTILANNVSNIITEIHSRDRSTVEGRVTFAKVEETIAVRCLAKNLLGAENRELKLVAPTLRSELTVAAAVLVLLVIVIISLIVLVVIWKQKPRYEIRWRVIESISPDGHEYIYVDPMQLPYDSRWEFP

Substance | PDGF-dependent activation of Erk (Erk) | basal or PDGF-stimulated tyrosine phosphorylation of the mutant receptor (human αPDGFR) | kinase activity towards exogenous substrate GST-PLCγ (GST-PLCγ) | [3H]-thymidine incorporation in response to serum (NIH 3T3 cells)
D818N: human αPDGFR point mutant, aspartic acid at position 818 changed to asparagine; SEQ ID NO: 8 | failed to fully activated Erk | no detectable | not phosphorylated | 
V859M: human αPDGFR point mutant, valine at position 859 changed to methionine; SEQ ID NO: 10 |  |  | more active than the WT receptor | somewhat elevated response to serum
